Reference: patent US20200222474A1, “COMPOSITIONS AND METHODS FOR INCREASING PHYTOCHEMICAL BIOAVAILABLITY AND BIOACTIVITY” (North Carolina State University, priority 2017, published 2020)

Tested on: L. acidophilus NCFM
Test: RNA-seq transcriptional analysis of L. acidophilus NCFM growing on plant glycosides
Type: cell-based, Lactobacillus acidophilus
[1] = gene LBA0282 (Hypothetical protein)
[2] = gene LBA0327 (Replication protein)
[3] = gene LBA0328 (Hypothetical protein)
[4] = gene LBA0330 (Hypothetical protein)
[5] = gene LBA0457 (Hypothetical protein)
[6] = gene LBA0485 (Hypothetical protein)
[7] = gene LBA0486 (Hypothetical protein)
[8] = gene LBA0487 (Hypothetical protein.)
[9] = gene LBA0492 (Hypothetical protein)
[10] = gene LBA0541 (Cadmium-transporting ATPase)
[11] = gene LBA0542 (Putative heavy-metal-transporting alpase)
[12] = gene LBA0543 (Hypothetical protein)
[13] = gene LBA0544 (Transcriptional regulator)
[14] = gene LBA0555 (Myosin-crossreactive antigen)
[15] = gene LBA0564 (HAD family hydrolase)
[16] = gene LBA0574 (ABC multi drug exporter)
[17] = gene LBA0575 (ABC multi drug exporter)
[18] = gene LBA0604 (Immunity protein)
[19] = gene LBA0605 (Putative hydrolase)
[20] = gene LBA0608 (Hypothetical protein)
[21] = gene LBA0631 (Hypothetical protein)
[22] = gene LBA0649 (Myosin-crossreactive antigen)
[23] = gene LBA0728 (Hypothetical protein LBA0728)
[24] = gene LBA1025 (Aldo/keto reductase family oxidoreductase)
[25] = gene LBA1026 (Aldo/keto reduetase family oxidoreductase)
[26] = gene LBA1206 (Hypothetical protein)
[27] = gene LBA1401 (Peroxidase (Npx))
[28] = gene LBA1435 (Hypothetical protein)
[29] = gene LBA1455 (Putative surface layer protein)
[30] = gene LBA1469 (UDP-glucose 4-epimerase)
[31] = gene LBA1656 (Hypothetical protein)
[32] = gene LBA1675 (Hypothetical protein)
[33] = gene LBA1676 (ATP-dependent helicase)
[34] = gene LBA1683 (Putative magnesium-transporting atpase)
[35] = gene LBA1704 (N-Acetylmuramic acid-6-phosphate etherase)
[36] = gene LBA1740 (Hypothetical protein)
[37] = gene LBA1752 (Hypothetical protein)
[38] = gene LBA1769 (Hypothetical protein)
[39] = gene LBA1793 (Hypothetical protein)
[40] = gene LBA1869 (Beta-phosphoglueomutase)
[41] = gene LBA1895 (Hypothetical protein)
[42] = nTPM on plant glycoside relative to glucose, mid-exponential phase

## N#C[C@H](O[C@@H]1O[C@H](CO[C@@H]2O[C@H](CO)[C@@H](O)[C@H](O)[C@H]2O)[C@@H](O)[C@H](O)[C@H]1O)c1ccccc1 [Amygdalin]
[1]
  Log2 differential normalized TPM ratio compared to glucose: 0.2
  Log2 differential normalized TPM ratio compared to lactose: −0.4
  Transcripts per million (rpm): 20 rpm
[2]
  Log2 differential normalized TPM ratio compared to glucose: −0.9
  Log2 differential normalized TPM ratio compared to lactose: −1.1
  Transcripts per million (rpm): 3.5 rpm
[3]
  Log2 differential normalized TPM ratio compared to glucose: −0.3
  Log2 differential normalized TPM ratio compared to lactose: −0.3
  Transcripts per million (rpm): 9 rpm
[4]
  Log2 differential normalized TPM ratio compared to glucose: 0.1
  Log2 differential normalized TPM ratio compared to lactose: −0.2
  Transcripts per million (rpm): 18.2 rpm
[5]
  Log2 differential normalized TPM ratio compared to glucose: 1.6
  Log2 differential normalized TPM ratio compared to lactose: 0.6
  Transcripts per million (rpm): 1217.8 rpm
[6]
  Log2 differential normalized TPM ratio compared to glucose: 3.3
  Log2 differential normalized TPM ratio compared to lactose: 0.9
  Transcripts per million (rpm): 1655 rpm
[7]
  Log2 differential normalized TPM ratio compared to glucose: 3.7
  Log2 differential normalized TPM ratio compared to lactose: 0.9
  Transcripts per million (rpm): 2443 rpm
[8]
  Log2 differential normalized TPM ratio compared to glucose: 2.3
  Log2 differential normalized TPM ratio compared to lactose: 1
  Transcripts per million (rpm): 132.1 rpm
[9]
  Log2 differential normalized TPM ratio compared to glucose: 5
  Log2 differential normalized TPM ratio compared to lactose: 2.6
  Transcripts per million (rpm): 213.1 rpm
[10]
  Log2 differential normalized TPM ratio compared to glucose: 2
  Log2 differential normalized TPM ratio compared to lactose: −0.2
  Transcripts per million (rpm): 119.7 rpm
[11]
  Log2 differential normalized TPM ratio compared to glucose: 2.2
  Log2 differential normalized TPM ratio compared to lactose: 0
  Transcripts per million (rpm): 320.9 rpm
[12]
  Log2 differential normalized TPM ratio compared to glucose: 2.4
  Log2 differential normalized TPM ratio compared to lactose: 0
  Transcripts per million (rpm): 283.1 rpm
[13]
  Log2 differential normalized TPM ratio compared to glucose: 1.9
  Log2 differential normalized TPM ratio compared to lactose: −0.1
  Transcripts per million (rpm): 321.3 rpm
[14]
  Log2 differential normalized TPM ratio compared to glucose: 6
  Log2 differential normalized TPM ratio compared to lactose: 4.1
  Transcripts per million (rpm): 2251.5 rpm
[15]
  Log2 differential normalized TPM ratio compared to glucose: 2.3
  Log2 differential normalized TPM ratio compared to lactose: 1.8
  Transcripts per million (rpm): 4.1 rpm
[16]
  Log2 differential normalized TPM ratio compared to glucose: −1.2
  Log2 differential normalized TPM ratio compared to lactose: −1.5
  Transcripts per million (rpm): 31.9 rpm
[17]
  Log2 differential normalized TPM ratio compared to glucose: −1
  Log2 differential normalized TPM ratio compared to lactose: −1.2
  Transcripts per million (rpm): 32.6 rpm
[18]
  Log2 differential normalized TPM ratio compared to glucose: 2
  Log2 differential normalized TPM ratio compared to lactose: 1.6
  Transcripts per million (rpm): 49.6 rpm
[19]
  Log2 differential normalized TPM ratio compared to glucose: 3.6
  Log2 differential normalized TPM ratio compared to lactose: 2.6
  Transcripts per million (rpm): 26.3 rpm
[20]
  Log2 differential normalized TPM ratio compared to glucose: 3.1
  Log2 differential normalized TPM ratio compared to lactose: 2
  Transcripts per million (rpm): 239.3 rpm
[21]
  Log2 differential normalized TPM ratio compared to glucose: 7.2
  Log2 differential normalized TPM ratio compared to lactose: 4
  Transcripts per million (rpm): 141786.9 rpm
[22]
  Log2 differential normalized TPM ratio compared to glucose: 2.9
  Log2 differential normalized TPM ratio compared to lactose: 2.1
  Transcripts per million (rpm): 228.6 rpm
[23]
  Log2 differential normalized TPM ratio compared to glucose: 6
  Log2 differential normalized TPM ratio compared to lactose: 4.2
  Transcripts per million (rpm): 129.5 rpm
Gene LBA0861 (Polyferredoxin)
  Log2 differential normalized TPM ratio compared to glucose: 0
  Log2 differential normalized TPM ratio compared to lactose: −0.5
  Transcripts per million (rpm): 153 rpm
Gene LBA1023 (Oxidoreductase)
  Log2 differential normalized TPM ratio compared to glucose: −1.5
  Log2 differential normalized TPM ratio compared to lactose: −1.8
  Transcripts per million (rpm): 18.8 rpm
[24]
  Log2 differential normalized TPM ratio compared to glucose: −1.8
  Log2 differential normalized TPM ratio compared to lactose: −1.8
  Transcripts per million (rpm): 7.2 rpm
[25]
  Log2 differential normalized TPM ratio compared to glucose: −1.7
  Log2 differential normalized TPM ratio compared to lactose: −2.1
  Transcripts per million (rpm): 8.1 rpm
Gene LBA1027 (Oxidoreductase)
  Log2 differential normalized TPM ratio compared to glucose: 2.9
  Log2 differential normalized TPM ratio compared to lactose: 1.4
  Transcripts per million (rpm): 3613.2 rpm
[26]
  Log2 differential normalized TPM ratio compared to glucose: 3.2
  Log2 differential normalized TPM ratio compared to lactose: 2
  Transcripts per million (rpm): 984.2 rpm
[27]
  Log2 differential normalized TPM ratio compared to glucose: 4.4
  Log2 differential normalized TPM ratio compared to lactose: 2.3
  Transcripts per million (rpm): 1161.2 rpm
[28]
  Log2 differential normalized TPM ratio compared to glucose: 7.1
  Log2 differential normalized TPM ratio compared to lactose: 3.3
  Transcripts per million (rpm): 468.3 rpm
[29]
  Log2 differential normalized TPM ratio compared to glucose: 2.4
  Log2 differential normalized TPM ratio compared to lactose: 0.8
  Transcripts per million (rpm): 73.9 rpm
[30]
  Log2 differential normalized TPM ratio compared to glucose: 2.4
  Log2 differential normalized TPM ratio compared to lactose: −2.6
  Transcripts per million (rpm): 385.3 rpm
[31]
  Log2 differential normalized TPM ratio compared to glucose: 2.6
  Log2 differential normalized TPM ratio compared to lactose: 2.1
  Transcripts per million (rpm): 103.5 rpm
[32]
  Log2 differential normalized TPM ratio compared to glucose: 2.1
  Log2 differential normalized TPM ratio compared to lactose: 0.6
  Transcripts per million (rpm): 1397.9 rpm
[33]
  Log2 differential normalized TPM ratio compared to glucose: 1.9
  Log2 differential normalized TPM ratio compared to lactose: 0.7
  Transcripts per million (rpm): 953.4 rpm
[34]
  Log2 differential normalized TPM ratio compared to glucose: 2
  Log2 differential normalized TPM ratio compared to lactose: 2.3
  Transcripts per million (rpm): 53.6 rpm
[35]
  Log2 differential normalized TPM ratio compared to glucose: 2.1
  Log2 differential normalized TPM ratio compared to lactose: 1.4
  Transcripts per million (rpm): 23 rpm
[36]
  Log2 differential normalized TPM ratio compared to glucose: 0.1
  Log2 differential normalized TPM ratio compared to lactose: −0.7
  Transcripts per million (rpm): 15.4 rpm
[37]
  Log2 differential normalized TPM ratio compared to glucose: 0.8
  Log2 differential normalized TPM ratio compared to lactose: 0
  Transcripts per million (rpm): 12.1 rpm
[38]
  Log2 differential normalized TPM ratio compared to glucose: 3
  Log2 differential normalized TPM ratio compared to lactose: 1.2
  Transcripts per million (rpm): 10240.4 rpm
[39]
  Log2 differential normalized TPM ratio compared to glucose: 2.3
  Log2 differential normalized TPM ratio compared to lactose: −0.5
  Transcripts per million (rpm): 67 rpm
Gene LBA1796 (ABC exporter)
  Log2 differential normalized TPM ratio compared to glucose: 2.4
  Log2 differential normalized TPM ratio compared to lactose: −0.1
  Transcripts per million (rpm): 39.3 rpm
[40]
  Log2 differential normalized TPM ratio compared to glucose: 6.7
  Log2 differential normalized TPM ratio compared to lactose: 4.2
  Transcripts per million (rpm): 670.5 rpm
[41]
  Log2 differential normalized TPM ratio compared to glucose: 2.8
  Log2 differential normalized TPM ratio compared to lactose: 2.6
  Transcripts per million (rpm): 152.2 rpm
[42]
  Log2 Ratio vs Glc, LBA0225 Phospho-β-glucosidase (GH1): 6.5
  Log2 Ratio vs Glc, LBA0227 PTS EIIC: 9.9
  Log2 Ratio vs Glc, LBA0228 Transcriptional regulator: 6.3
  Log2 Ratio vs Glc, LBA0466 Phosphoenolpyruvate carboxykinase (ATP): 5.2
  Log2 Ratio vs Glc, LBA0491 PTS EIIC: 4.7
  Log2 Ratio vs Glc, LBA0492 Hypothetical protein: 5
  Log2 Ratio vs Glc, LBA0555 Myosin-cross-reactive antigen/Fatty acid hydratase: 6
  Log2 Ratio vs Glc, LBA0606 PTS EIIBC: 4.9
  Log2 Ratio vs Glc, LBA0631 Hypothetical protein: 7.2
  Log2 Ratio vs Glc, LBA0724 Transcriptional regulator (antiterminator): 6.4
  Log2 Ratio vs Glc, LBA0725 PTS EIICBA: 9.7
  Log2 Ratio vs Glc, LBA0726 Phospho-β-glucosidase (GH1): 7.2
  Log2 Ratio vs Glc, LBA0728 Hypothetical protein: 6
  Log2 Ratio vs Glc, LBA0876 PTS EIIC: 4.4
  Log2 Ratio vs Glc, LBA0877 PTS EIIA: 4.6
  Log2 Ratio vs Glc, LBA1401 Peroxidase (Npx): 4.4
  Log2 Ratio vs Glc, LBA1411 Fumarate reductase flavoprotein subunit: 4
  Log2 Ratio vs Glc, LBA1433 Dihydroxyacetone kinase: 6
  Log2 Ratio vs Glc, LBA1434 Dihydroxyacetone kinase: 6.7
  Log2 Ratio vs Glc, LBA1435 Hypothetical protein: 7.1
  Log2 Ratio vs Glc, LBA1436 Glycerol uptake facilitator protein: 7.2
  Log2 Ratio vs Glc, LBA1632 NAD-dependent aldehyde dehydrogenase: 4.4
  Log2 Ratio vs Glc, LBA1684 PTS EIIA: 6.6
  Log2 Ratio vs Glc, LBA1689 Maltose-6′-phosphate glucosidase (GH4): 5.3
  Log2 Ratio vs Glc, LBA1701 Melibiose operon regulatory protein: 5.3
  Log2 Ratio vs Glc, LBA1709 Mucus binding protein precursor: 4.5
  Log2 Ratio vs Glc, LBA1797 Hypothetical protein: 4.7
  Log2 Ratio vs Glc, LBA1812 α-Glucosidase II (GH31): 5.3
  Log2 Ratio vs Glc, LBA1869 β-Phosphoglucomutase: 6.7
  Log2 Ratio vs Glc, LBA1871 Neopullulanase (GH13): 4.3
  Log2 Ratio vs Glc, LBA1873 Acetate kinase: 4.6
  Log2 Ratio vs Glc, LBA1974 Pyruvate oxidase: 5.5
